From ChEMBL document CHEMBL1201862, “PubChem BioAssay data set” (2004) come the findings set out here.

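Test compounds were applied to cells in 96-well plates for 48 hours at 5 doses. GI50 marks 50% less growth.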 Activity calls are given as the source filed them. Rule as the data show it: active = GI50 up to about 1.1 µM and inactive = higher.

What all share (experiment): inhibition of tumour cell growth, NCI panel, 48 h
Assay [1] deals with NCI-H460.
For assay [2], the system named is RPMI-8226.
The subject of assay [3] is M14.
In assay [4] the test system is CAKI-1.
Assay [5] has as its system IGROV-1.
In assay [6] the test system is SN12C.
Assay [7] deals with NCI-H522.
Assay [8] concerns COLO 205.
Assay [9] concerns UO-31.
Assay [10] deals with HOP-92.
Assay [11] relates to HT-29.
The test system of assay [12] is SNB-75.
Assay [13] relates to RXF 393.
Assay [14] deals with K562.
Assay [15] relates to HCT-15.
The test system of assay [16] is HOP-62.
Assay [17] has as its system SK-OV-3.
Assay [18] concerns A498.

On to `C=CCC(O)c1cc(OC)ccc1OC` (stereo unspecified), for which the GI50 in assay [1], in assay [2], in assay [3], in assay [4], in assay [5] and in [6] was > 100 µM (inactive) throughout. The GI50 in assay [7], in assay [8], in [9], in assay [10], in assay [11] and in assay [12] was > 100 µM (inactive) each time. The GI50 in assay [13] is > 100 µM (inactive); in [14] it was > 100 µM (inactive); in assay [15] it was greater than 100 µM; in assay [16], > 100 µM (inactive); in assay [17], > 100 µM (inactive).

As for `COc1ccc(C2=NN(c3ccccc3)C[N+](c3ccc(C)cc3)=N2)cc1`, the GI50 in [1] is 65.5 µM (inactive); in assay [2], 26.9 µM (inactive); in assay [5], 39.3 µM (inactive); in [6], 66.5 µM (inactive); in assay [7] it was 12.7 µM (inactive); in assay [8] it was 31.3 µM (inactive). In addition, the GI50 in assay [9] is 38.3 µM (inactive); in assay [11] it was 73.1 µM (inactive); in assay [13], 19.5 µM (inactive); in assay [14], 14.6 µM (inactive); in [15] it was 51.2 µM; in assay [18] it was 63 µM (inactive). The GI50 in [16] was > 100 µM (inactive).

Consider `CCc1ccc(Nc2ccc([N+](=O)[O-])cc2[N+](=O)[O-])cc1`, for which the GI50 is 69.2 µM (inactive) in [1]; 39.1 µM (inactive) in assay [2]; > 100 µM (inactive) in assay [3]; 39.1 µM (inactive) in [4]; 97.3 µM (inactive) in assay [5]; 26.2 µM (inactive) in assay [9]. For the same molecule, the GI50 in [11] was 47.3 µM (inactive); in assay [12] it was 39.7 µM (inactive); in assay [13], 71.4 µM (inactive); in assay [14] it was 29.8 µM (inactive); in assay [15], 96.4 µM; in assay [18], 23.7 µM (inactive). Further, the GI50 in [16] and in assay [17] was > 100 µM (inactive) each time.

For the molecule `C=CC/N=C1\NC(=O)C(CC(=O)Nc2ccc(C)cc2)S1` (stereo unspecified), the GI50 in [1], in assay [2], in [3], in assay [4], in assay [5] and in [6] was > 100 µM (inactive) each time. The GI50 in assay [7], in assay [8], in assay [9], in assay [11], in assay [12] and in assay [13] was > 100 µM (inactive) in each case. Further, the GI50 was > 100 µM (inactive) in [14]; greater than 100 µM in assay [15]; > 100 µM (inactive) in [18]; > 100 µM (inactive) in [16]; > 100 µM (inactive) in [17].

For the molecule `CN(C)P(=O)(/C(N)=N/Nc1ccc([N+](=O)[O-])cc1)N(C)C`, the GI50 in [1] was > 100 µM (inactive); in assay [2], > 100 µM (inactive); in assay [3], > 100 µM (inactive); in assay [4] it was > 100 µM (inactive); in assay [6], > 100 µM (inactive); in assay [7] it was 48 µM (inactive). Besides, the GI50 was > 100 µM (inactive) in assay [8]; > 100 µM (inactive) in assay [9]; 41.4 µM (inactive) in [10]; > 100 µM (inactive) in assay [12]; > 100 µM (inactive) in assay [14]; greater than 100 µM in assay [15]. For the same molecule, the figures for the GI50 in [18] and in [16] were 0.558 µM (active) and > 100 µM (inactive), respectively.

For the molecule `NC(=O)N/N=C(/c1nc2ccc([N+](=O)[O-])cc2nc1O)C(O)c1ccco1` (stereo unspecified), the GI50 in assay [1] is 59.6 µM (inactive); in [2] it was 43 µM (inactive); in assay [3], 93.8 µM (inactive); in assay [4], 61.7 µM (inactive); in assay [5], 73.3 µM (inactive); in assay [6], 17.4 µM (inactive). Further, the GI50 is 14.7 µM (inactive) in [7]; 40 µM (inactive) in assay [8]; 53.6 µM (inactive) in [9]; > 100 µM (inactive) in assay [10]; 46.2 µM (inactive) in assay [11]; 97.9 µM (inactive) in [12]. Besides, the GI50 in assay [13] is > 100 µM (inactive); in assay [14], 33.9 µM (inactive); in [15], 12 µM; in [16] it was 35.3 µM (inactive); in assay [17] it was > 100 µM (inactive).

In the case of `N#CC(C(=O)/C(=N/N)C(C#N)c1ccccc1)c1ccccc1` (stereo unspecified), the GI50 in assay [1], in assay [2], in assay [3], in [4], in [5] and in assay [6] was > 100 µM (inactive) each time. The GI50 in [7], in [9], in assay [10], in assay [11], in [13] and in assay [14] was > 100 µM (inactive) in each case. Also, the GI50 in assay [15] is greater than 100 µM; in assay [16], > 100 µM (inactive); in assay [17] it was > 100 µM (inactive).

In the case of `O=C(c1ccc(Cl)cc1)N(C(=S)N1CCN(c2ccccn2)CC1)c1ccccc1`, the GI50 in assay [1] was > 100 µM (inactive); in assay [2], 82.4 µM (inactive); in assay [3], > 100 µM (inactive); in assay [4], > 100 µM (inactive); in [5], > 100 µM (inactive); in [6], > 100 µM (inactive). In addition, the GI50 in assay [7] was > 100 µM (inactive); in assay [8], > 100 µM (inactive); in assay [9] it was 68.9 µM (inactive); in assay [10], > 100 µM (inactive); in [11], > 100 µM (inactive); in [12], > 100 µM (inactive). For the same molecule, the GI50 in [13] was 15.6 µM (inactive); in [14], 41.7 µM (inactive); in assay [15], greater than 100 µM; in assay [16], > 100 µM (inactive); in [17], > 100 µM (inactive).

As to `O=C1c2ccccc2C(=O)C2C3c4ccccc4C(c4ccccc43)C12` (stereo unspecified), the GI50 in assay [1] is 50.2 µM (inactive); in assay [2], 10.9 µM (inactive); in assay [3], 56.4 µM (inactive); in assay [5], 22.9 µM (inactive); in assay [6], 23.9 µM (inactive); in assay [7] it was 31.3 µM (inactive). In addition, the GI50 was 45 µM (inactive) in assay [8]; 21.8 µM (inactive) in [9]; 21.1 µM (inactive) in [11]; 15.6 µM (inactive) in assay [12]; 7.8 µM (inactive) in assay [13]; 15.9 µM (inactive) in assay [14]. Also, the values for the GI50 in [15], in [16] and in assay [17] were 39 µM, 30 µM (inactive) and 24.9 µM (inactive), respectively.

In the case of `CCOc1ccc(/C=C2/C(=O)N=C(N)N=C2N)cc1OCC`, the GI50 in assay [1], in [2], in [3], in assay [4], in assay [5] and in [6] was > 100 µM (inactive) throughout. Moreover, the GI50 in [7], in [8], in [9], in assay [10], in assay [11] and in assay [12] was > 100 µM (inactive) in each case. The GI50 is > 100 µM (inactive) in [13], > 100 µM (inactive) in [14], greater than 100 µM in [15] and > 100 µM (inactive) in assay [17].

With `O=c1[nH][nH]c(=O)[nH]1`, the GI50 in [1], in assay [2], in [3], in assay [4], in assay [5] and in assay [7] was > 100 µM (inactive) throughout. Moreover, the GI50 in [8], in [9], in assay [10], in assay [11], in assay [12] and in assay [13] was > 100 µM (inactive) each time. Also, the GI50 in assay [14] is > 100 µM (inactive); in assay [15] it was greater than 100 µM; in assay [16], > 100 µM (inactive); in assay [17], > 100 µM (inactive).

Take `c1ccc(CN2CCCCC(Sc3ccccc3)CC2)cc1` (stereo unspecified): the GI50 in [1] was 20.2 µM (inactive); in assay [2] it was 17.8 µM (inactive); in assay [3] it was 16.1 µM (inactive); in assay [4], 26.9 µM (inactive); in assay [5], 91.6 µM (inactive); in assay [6], 24.7 µM (inactive). The GI50 in assay [8] was 13.4 µM (inactive); in assay [9] it was 15.3 µM (inactive); in assay [10], 28.5 µM (inactive); in assay [11], 17.7 µM (inactive); in assay [12], 30.5 µM (inactive); in assay [14], 15.5 µM (inactive). Besides, the GI50 in assay [15] was 17.6 µM; in [18] it was > 100 µM (inactive); in [16], 64.4 µM (inactive); in assay [17] it was 58.2 µM (inactive).

Regarding `CC(O)c1ccc[n+](Cc2ccccc2)c1` (stereo unspecified), the GI50 in assay [1], in assay [2], in assay [4], in assay [5], in [6] and in [7] was > 400 µM (inactive) in each case. In addition, the GI50 in assay [8] is > 400 µM (inactive); in [10], > 400 µM (inactive); in assay [11], > 400 µM (inactive); in [13], > 400 µM (inactive); in [14], > 400 µM (inactive); in assay [15], greater than 400 µM. In addition, the GI50 in [16] and in assay [17] was > 400 µM (inactive) throughout.
